DBAASP
Converted amounts (≈) assume the structure as drawn. “And” between values parts separate entries of the source, which are not always exact repeats. Equal entries are not always repeated. Each block holds one compound with its values, some of them ahead of it.

Key:
Assay in all cases: ≥ marks a high value that may be exact or a test limit, other limits are often not marked, values filed in µg/mL are converted to µM
[1] = system: Klebsiella pneumoniae ATCC 13883
[2] = system: Escherichia coli ATCC 25922
[3] = system: Staphylococcus aureus USA 300
[4] = system: Pseudomonas aeruginosa PAO1
[5] = system: Staphylococcus aureus ATCC BAA-1556
Micrococcus luteus = system: Micrococcus luteus
Escherichia coli = system: Escherichia coli
Enterococcus faecium = system: Enterococcus faecium
Pseudomonas aeruginosa = system: Pseudomonas aeruginosa
Klebsiella pneumoniae = system: Klebsiella pneumoniae
Acinetobacter baumannii = system: Acinetobacter baumannii
Staphylococcus aureus = system: Staphylococcus aureus
Streptococcus mutans = system: Streptococcus mutans
Salmonella typhimurium = system: Salmonella typhimurium
Bacillus subtilis = system: Bacillus subtilis
[6] = system: Candida albicans ATCC 2002
[7] = system: Staphylococcus aureus ATCC 2592

MIC [1]: 25 µM (≈ 25 µg/mL)
MIC [2]: > 25 µM
MIC [3]: 25 µM (≈ 25 µg/mL)
MIC [4]: > 25 µM
Compound: CC(C)C[C@H](NC(=O)[C@H](CC(C)C)NC(=O)[C@H](CCCCN)NC(=O)CNC(=O)[C@H](CC(C)C)NC(=O)[C@H](CO)NC(=O)[C@H](CO)NC(=O)[C@H](CC(C)C)NC(=O)[C@H](CC(C)C)NC(=O)CN)C(N)=O [GLLSSLGKLL]

MIC [5]: 12.5 µM (≈ 16 µg/mL)
Compound: CC(C)C[C@H](NC(=O)[C@H](CCCCN)NC(=O)[C@H](CC(C)C)NC(=O)[C@H](CC(C)C)NC(=O)[C@H](Cc1c[nH]c2ccccc12)NC(=O)[C@H](CCCCN)NC(=O)[C@H](CC(C)C)NC(=O)[C@H](CC(C)C)NC(=O)[C@H](CCCCN)NC(=O)[C@@H](N)CCCCN)C(N)=O [KKLLKWLLKL]

MIC (Micrococcus luteus): 31.2 µM (≈ 98.3 µg/mL)
Compound: CC[C@H](C)[C@H](NC(=O)[C@H](CCC(=O)O)NC(=O)[C@@H]1CCCN1C(=O)[C@H](CO)NC(=O)[C@H](Cc1ccccc1)NC(=O)[C@H](C)NC(=O)[C@@H](NC(=O)CNC(=O)[C@H](CC(C)C)NC(=O)[C@H](CCCCN)NC(=O)[C@H](C)NC(=O)[C@H](C)NC(=O)[C@H](CCSC)NC(=O)[C@@H](NC(=O)[C@@H](NC(=O)[C@@H](NC(=O)[C@H](CC(C)C)NC(=O)[C@H](CS)NC(=O)[C@H](CC(N)=O)NC(=O)CNC(=O)[C@H](CC(C)C)NC(=O)[C@H](CC(C)C)NC(=O)[C@@H](N)CCCN=C(N)N)[C@@H](C)O)C(C)C)C(C)C)[C@@H](C)O)C(=O)N[C@@H](CCC(N)=O)C(=O)N[C@@H](CS)C(=O)N[C@@H](C)C(=O)N[C@@H](Cc1c[nH]c2ccccc12)C(=O)N[C@@H](CCC(N)=O)C(=O)N[C@@H](CCCCN)C(=O)O [RLLGNCLTVVMAAKLGTAFSPEIQCAWQK]

MIC [1]: 25 µM (≈ 35.2 µg/mL)
MIC [2]: > 25 µM
MIC [3]: 6.2 µM (≈ 8.74 µg/mL)
MIC [4]: > 25 µM
Compound: CC(C)C[C@H](NC(=O)[C@H](CC(C)C)NC(=O)[C@H](CCCCN)NC(=O)[C@H](CC(C)C)NC(=O)[C@H](CCCCN)NC(=O)[C@H](CC(C)C)NC(=O)[C@H](CO)NC(=O)[C@H](CC(C)C)NC(=O)[C@H](CC(C)C)NC(=O)[C@H](CC(C)C)NC(=O)[C@H](CO)NC(=O)[C@H](CC(C)C)NC(=O)CN)C(N)=O [GLSLLLSLKLKLL]

MIC [5]: 25 µM (≈ 33.1 µg/mL)
Compound: CC[C@H](C)[C@H](NC(=O)[C@H](CC(C)C)NC(=O)[C@H](CCCN=C(N)N)NC(=O)[C@H](CCCN=C(N)N)NC(=O)[C@H](Cc1c[nH]c2ccccc12)NC(=O)[C@@H](N)CCCCN)C(=O)N[C@@H](CCCN=C(N)N)C(=O)N[C@@H](Cc1c[nH]c2ccccc12)C(=O)N[C@@H](CC(C)C)C(N)=O [KWRRLIRWL]

MIC [5]: 6.25 µM (≈ 8.32 µg/mL)
Compound: CC(C)C[C@H](NC(=O)[C@H](Cc1c[nH]c2ccccc12)NC(=O)[C@H](Cc1c[nH]c2ccccc12)NC(=O)[C@H](CC(C)C)NC(=O)[C@H](Cc1c[nH]c2ccccc12)NC(=O)[C@@H](N)Cc1c[nH]c2ccccc12)C(=O)N[C@@H](CCCN=C(N)N)C(=O)N[C@@H](Cc1c[nH]c2ccccc12)C(N)=O [WWLWWLRW]

MIC [5]: 6.25 µM (≈ 9.02 µg/mL)
Compound: CC(C)C[C@H](NC(=O)[C@H](Cc1c[nH]c2ccccc12)NC(=O)[C@H](Cc1c[nH]c2ccccc12)NC(=O)[C@H](CC(C)C)NC(=O)[C@H](Cc1c[nH]c2ccccc12)NC(=O)[C@H](Cc1c[nH]c2ccccc12)NC(=O)[C@H](CC(C)C)NC(=O)[C@H](Cc1c[nH]c2ccccc12)NC(=O)[C@@H](N)CCCN=C(N)N)C(N)=O [RWLWWLWWL]

MIC [5]: 3.12 µM (≈ 4.37 µg/mL)
Compound: CC(C)C[C@H](NC(=O)[C@H](Cc1c[nH]c2ccccc12)NC(=O)[C@H](CCCN=C(N)N)NC(=O)[C@H](CC(C)C)NC(=O)[C@H](Cc1c[nH]c2ccccc12)NC(=O)[C@H](CCCN=C(N)N)NC(=O)[C@H](CCCN=C(N)N)NC(=O)[C@H](Cc1c[nH]c2ccccc12)NC(=O)[C@@H](N)CCCCN)C(N)=O [KWRRWLRWL]

MIC [5]: 12.5 µM (≈ 13.3 µg/mL)
Compound: CC(C)C[C@H](NC(=O)[C@H](CC(C)C)NC(=O)[C@H](CC(C)C)NC(=O)[C@H](CC(C)C)NC(=O)[C@H](CC(C)C)NC(=O)[C@H](CCCCN)NC(=O)[C@H](CCCCN)NC(=O)[C@H](CC(C)C)NC(=O)[C@@H](N)CC(C)C)C(N)=O [LLKKLLLLL]

MIC [5]: ≥ 100 µM
Compound: CC(C)C[C@H](NC(=O)[C@H](CC(C)C)NC(=O)[C@H](CCCCN)NC(=O)[C@H](CC(C)C)NC(=O)[C@H](CCCCN)NC(=O)[C@H](CC(C)C)NC(=O)[C@H](CC(C)C)NC(=O)[C@H](CC(C)C)NC(=O)[C@@H](N)CC(C)C)C(N)=O [LLLLKLKLL]

MIC (Escherichia coli): 1.41 µM (≈ 3.74 µg/mL)
MIC (Enterococcus faecium): 1 µM (≈ 2.64 µg/mL)
MIC (Pseudomonas aeruginosa): 2.83 µM and 2 µM and 5.66 µM
MIC (Klebsiella pneumoniae): 2.83 µM (≈ 7.47 µg/mL)
MIC (Acinetobacter baumannii): 2.83 µM and 1 µM
MIC [3]: 5.66 µM (≈ 14.9 µg/mL)
MIC (Staphylococcus aureus): 2 µM (≈ 5.28 µg/mL)
Compound: CC[C@H](C)[C@H](NC(=O)[C@@H](NC(=O)[C@H](CO)NC(=O)[C@@H](NC(=O)[C@@H](NC(=O)[C@H](CCCCN)NC(=O)CNC(=O)[C@H](CC(C)C)NC(=O)[C@H](CC(C)C)NC(=O)CNC(=O)CNC(=O)[C@H](CC(C)C)NC(=O)[C@H](CC(C)C)NC(=O)CNC(=O)[C@H](CCCCN)NC(=O)[C@H](CO)NC(=O)[C@@H](NC(=O)[C@H](CCCCN)NC(=O)[C@H](Cc1c[nH]c2ccccc12)NC(=O)[C@H](Cc1c[nH]c2ccccc12)NC(=O)[C@H](CCCCN)NC(=O)[C@H](CCCCN)NC(=O)[C@@H](N)CC(C)C)[C@@H](C)O)C(C)C)[C@@H](C)O)C(C)C)C(=O)N[C@@H](CCCCN)C(=O)O [LKKWWKTSKGLLGGLLGKVTSVIK]

MIC [5]: 25 µM (≈ 32.1 µg/mL)
Compound: CC[C@H](C)[C@H](NC(=O)[C@H](C)NC(=O)[C@H](CCCN=C(N)N)NC(=O)[C@H](CCCN=C(N)N)NC(=O)[C@H](Cc1c[nH]c2ccccc12)NC(=O)[C@@H](N)CCCCN)C(=O)N[C@@H](CCCN=C(N)N)C(=O)N[C@@H](Cc1c[nH]c2ccccc12)C(=O)N[C@@H](CC(C)C)C(N)=O [KWRRAIRWL]

MIC [1]: 25 µM (≈ 22.2 µg/mL)
MIC [2]: > 25 µM
MIC [3]: 25 µM (≈ 22.2 µg/mL)
MIC [4]: > 25 µM
Compound: CC(C)C[C@H](NC(=O)[C@H](CC(C)C)NC(=O)[C@H](CCCCN)NC(=O)CNC(=O)[C@H](CC(C)C)NC(=O)[C@H](CO)NC(=O)[C@H](CO)NC(=O)[C@H](CC(C)C)NC(=O)CN)C(N)=O [GLSSLGKLL]

MIC [5]: ≥ 100 µM
Compound: CC(C)C[C@H](NC(=O)[C@H](CC(C)C)NC(=O)[C@H](CC(C)C)NC(=O)[C@H](CC(C)C)NC(=O)[C@H](CCCCN)NC(=O)[C@H](CCCCN)NC(=O)[C@H](CC(C)C)NC(=O)[C@H](CC(C)C)NC(=O)[C@@H](N)CC(C)C)C(N)=O [LLLKKLLLL]

MIC [1]: 6.2 µM (≈ 8.04 µg/mL)
MIC [2]: 3.1 µM (≈ 4.02 µg/mL)
MIC [3]: 0.78 µM (≈ 1.01 µg/mL)
MIC [4]: 12.5 µM (≈ 16.2 µg/mL)
Compound: CC(C)C[C@H](NC(=O)[C@H](CC(C)C)NC(=O)[C@H](CCCCN)NC(=O)CNC(=O)[C@H](CC(C)C)NC(=O)[C@H](CC(C)C)NC(=O)[C@H](CO)NC(=O)[C@H](CC(C)C)NC(=O)[C@H](CC(C)C)NC(=O)[C@H](CO)NC(=O)[C@H](CC(C)C)NC(=O)[C@H](C)NC(=O)CN)C(N)=O [GALSLLSLLGKLL]

MIC (Streptococcus mutans): 4.55 µM (≈ 8 µg/mL)
Compound: CC(C)C[C@H](NC(=O)[C@H](CC(C)C)NC(=O)[C@H](Cc1cnc[nH]1)NC(=O)[C@H](Cc1cnc[nH]1)NC(=O)[C@H](CC(C)C)NC(=O)[C@H](Cc1cnc[nH]1)NC(=O)[C@H](CCCCN)NC(=O)[C@H](CC(C)C)NC(=O)[C@H](CC(C)C)NC(=O)[C@H](CCCCN)NC(=O)[C@H](CCCCN)NC(=O)[C@H](CC(C)C)NC(=O)[C@@H](N)CCCCN)C(=O)N[C@@H](Cc1cnc[nH]1)C(N)=O [KLKKLLKHLHHLLH]

MIC (Escherichia coli): 8 µM (≈ 14.8 µg/mL)
MIC (Salmonella typhimurium): 4 µM (≈ 7.4 µg/mL)
MIC (Staphylococcus aureus): 8 µM (≈ 14.8 µg/mL)
MIC (Bacillus subtilis): 4 µM (≈ 7.4 µg/mL)
Compound: CC(C)[C@H](NC(=O)CNC(=O)[C@H](CCCN=C(N)N)NC(=O)[C@@H](NC(=O)[C@@H](NC(=O)[C@@H](NC(=O)[C@H](CCCN=C(N)N)NC(=O)CNC(=O)[C@H](Cc1c[nH]c2ccccc12)NC(=O)[C@H](CCCN=C(N)N)NC(=O)[C@@H](NC(=O)[C@@H](NC(=O)[C@@H](NC(=O)CN)C(C)C)C(C)C)C(C)C)C(C)C)C(C)C)C(C)C)C(=O)N[C@@H](CCCN=C(N)N)C(=O)N[C@@H](CCCN=C(N)N)C(N)=O [GVVVRWGRVVVRGVRR]

MIC [6]: 8.55 µM (≈ 12.5 µg/mL)
MIC [2]: 8.55 µM (≈ 12.5 µg/mL)
MIC [7]: 4.28 µM (≈ 6.25 µg/mL)
Compound: CC[C@H](C)[C@H](NC(=O)[C@@H](N)Cc1ccccc1)C(=O)N1CCC[C@H]1C(=O)N[C@@H](CC(C)C)C(=O)N[C@H](C(=O)N[C@@H](CO)C(=O)NCC(=O)N[C@@H](CC(C)C)C(=O)N[C@@H](Cc1ccccc1)C(=O)N[C@@H](CO)C(=O)N[C@@H](CCCN=C(N)N)C(=O)N[C@@H](CC(C)C)C(=O)N[C@@H](CC(C)C)C(N)=O)C(C)C [FIPLVSGLFSRLL]
